ChEMBL document CHEMBL4339219, “Drug Design and Synthesis of First in Class PDZ1 Targeting NHERF1 Inhibitors as Anticancer Agents” (ACS Med Chem Lett, 2019)

How the values were obtained:
HEK-293T = experiment: Effect on FOP reporter expression in LiCl-induced HEK293T cells incubated for 24 hrs by luciferase reporter gene assay; format: ADME, cell-based; details: human
DLD-1 [1] = experiment: cells; details: Homo sapiens, DLD-1, 72 h
DLD-1 [2] = experiment: cells; details: Homo sapiens, DLD-1, 72 h; remark: listed apart in the source
SW480 [3] = experiment: cells; details: Homo sapiens, SW480, 72 h
SW480 [4] = experiment: cells; details: Homo sapiens, SW480, 72 h; remark: listed apart in the source
SW-620 [5] = experiment: cells; details: Homo sapiens, SW-620, 72 h
SW-620 [6] = experiment: cells; details: Homo sapiens, SW-620, 72 h; remark: listed apart in the source
DLD-1 [7] = experiment: cells; details: Homo sapiens, DLD-1, 72 h; remark: listed apart in the source
SW480 [8] = experiment: cells; details: Homo sapiens, SW480, 72 h; remark: listed apart in the source

## CCOC(=O)c1ccc(NS(=O)(=O)c2ccc(Br)cc2)cc1
HEK-293T
  Activity: Non-Toxic

## O=C(Nc1ccc(CO)cc1)c1[nH]c2ccc(Cl)cc2c1Cc1ccccc1
DLD-1 [1]
  IC50: 0.5 µM
DLD-1 [2]
  IC50: 0.1 µM
SW480 [3]
  IC50: 0.9 µM
SW480 [4]
  IC50: 0.1 µM
SW-620 [5]
  IC50: 18 µM
SW-620 [6]
  IC50: 0.5 µM

## Cc1cc([N+](=O)[O-])ccc1NS(=O)(=O)c1cc(Cl)ccc1Cl
DLD-1 [7]
  IC50: 28 µM
SW480 [8]
  IC50: 10 µM

## O=C(Nc1ccccc1CO)c1c[nH]c2ccc(Cl)cc12
DLD-1 [1]
  IC50: 0.8 µM
DLD-1 [2]
  IC50: 0.1 µM
SW480 [3]
  IC50: 3 µM
SW480 [4]
  IC50: 0.3 µM
SW-620 [5]
  IC50: 22 µM
